This is an account of results in patent US6939854B2, “Peptide inhibitors of hepatitis C virus NS3 protease” (priority 2000, dated 2005).

The experiment has as its target T1, Human neutrophil elastase (Homo sapiens, UniProt P08246).
T1 construct: purchased ART Biochemicals, Athens, Ga
T1 sequence (P08246 30-267): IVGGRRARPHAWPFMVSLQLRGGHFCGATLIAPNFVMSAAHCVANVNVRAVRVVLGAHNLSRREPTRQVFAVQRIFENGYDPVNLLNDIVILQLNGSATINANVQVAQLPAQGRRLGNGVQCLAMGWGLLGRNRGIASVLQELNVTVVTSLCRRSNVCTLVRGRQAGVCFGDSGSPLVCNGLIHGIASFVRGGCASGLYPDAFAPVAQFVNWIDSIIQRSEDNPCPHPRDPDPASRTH
As to the kind of experiment: Inhibitory selectivity of HCV NS3 protease over elastase (human neutrophil elastase assay). In kind it is biochemical. As to conditions: IC50 (elastase) divided by IC50 (HCV NS3). Here is the method:
Selectivity of HCV NS3 over elastase can be calculated by dividing IC50 (elastase) over IC50 (HCV NS3). Similarily, selectivity of HCV NS3 over chymotrypsin can be calculated by dividing IC50 (chymotrypsin) over IC50 (HCV NS3).
Human neutrophil elastase was obtained from ART Biochemicals, Athens, Ga. Stock solutions of lyophilized enzyme (1 mg/ml) were prepared in PBS buffer containing 10% glycerol and stored at −20 ° C. Human neutrophil elastase was assayed with the Meo-Suc-Ala-Ala-Pro-Val-p-nitroanilide (Sigma) as a substrate (C. Kettner and A. Shenvi, 1984). The hydrolysis of substrate was monitored at 405 nm on a Hewlett-Packard spectrophotometer.
For `CC(C)[C@H](NC(=O)c1cnccn1)C(=O)N[C@H](C(=O)N1C[C@H](OCc2ccccc2)C[C@H]1C(=O)N[C@@H](CCc1ccc(C(F)(F)F)cc1)B1OC2CC3CC(C3(C)C)C2(C)O1)C(C)C` (stereo partly drawn) [Example 34, (2-pyrazinecarbonyl)-Val-Val-Hyp(OBzl)-(1R)-1-amino-3-(4-trifluoromethyl)phenylpropylboronic acid (+)-pinanediol ester], the “Selectivity of HCV NS3 vs. elastase” value amounted to 7.

“H-Asp-Glu-Val-Val-Pro-(1R)-1-amino-3-(1,1′-biphenyl)-4-ylpropylboronic acid (+)-pinanediol ester [Example 11]”: the “Selectivity of HCV NS3 vs. elastase” value was more than 10. As for “H-Asp-Glu-Val-Val-Pro-(1R)-1-amino-3-(3-methyl)phenylpropylboronic acid (+)-pinanediol ester [Example 9]”, the “Selectivity of HCV NS3 vs. elastase” value is on record as more than 10. For “H-Asp-Glu-Val-Val-Pro-(1R)-1-amino-3-(4-bromo)phenylpropylboronic acid (+)-pinanediol ester [Example 23]”, the “Selectivity of HCV NS3 vs. elastase” value was more than 10. As for “H-Asp-Glu-Val-Val-Pro-(1R)-1-amino-3-(4-chloro)phenylpropylboronic acid (+)-pinanediol ester [Example 22]”, the “Selectivity of HCV NS3 vs. elastase” value is on record as more than 10. Take “H-Asp-Glu-Val-Val-Pro-(1R)-1-amino-3-(4-cyclohexyl)phenylpropylboronic acid (+)-pinanediol ester [Example 19]”: the “Selectivity of HCV NS3 vs. elastase” value is listed as more than 10. The value for “H-Asp-Glu-Val-Val-Pro-(1R)-1-amino-3-(4-fluoro)phenylpropylboronic acid (+)-pinanediol ester [Example 16]” was more than 10; that for “H-Asp-Glu-Val-Val-Pro-(1R)-1-amino-3-(4-hydroxy)phenylpropylboronic acid (+)-pinanediol ester [Example 27]” was more than 10. Turning to “H-Asp-Glu-Val-Val-Pro-(1R)-1-amino-3-(4-isopropyl)phenylpropylboronic acid (+)-pinanediol ester [Example 18]”, the “Selectivity of HCV NS3 vs. elastase” value was more than 10. Next, “H-Asp-Glu-Val-Val-Pro-(1R)-1-amino-3-(4-methoxy)phenylpropylboronic acid (+)-pinanediol ester [Example 21]”: more than 10; “H-Asp-Glu-Val-Val-Pro-(1R)-1-amino-3-(4-methyl)phenylpropylboronic acid (+)-pinanediol ester [Example 10]”: more than 10. Next, “H-Asp-Glu-Val-Val-Pro-(1R)-1-amino-3-(4-phenoxy)phenylpropylboronic acid (+)-pinanediol ester [Example 17]”: more than 10; “H-Asp-Glu-Val-Val-Pro-(1R)-1-amino-3-(4-tert-butyl)phenylpropylboronic acid (+)-pinanediol ester [Example 20]”: more than 10. Next, “H-Asp-Glu-Val-Val-Pro-(1R)-1-amino-3-(4-trifluoromethyl)phenylpropylboronic acid (+)-pinanediol ester [Example 14]”: more than 10; “H-Asp-Glu-Val-Val-Pro-(1R)-1-amino-3-phenylpropylboronic acid (+)-pinanediol ester [Example 3]”: more than 10; “H-Asp-Glu-Val-Val-Pro-(1R)-1-amino-5-methylhexylboronic acid (+)-pinanediol ester [Example 36]”: more than 10. With “H-Asp-Glu-Val-Val-Pro-(1R)-1-amino-5-phenylpentylboronic acid (+)-pinanediol ester [Example 5]”, the “Selectivity of HCV NS3 vs. elastase” value is 9.
